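Exposure lasted 48 hours, with cells grown in 96-well plates and compounds tested at five concentrations. GI50: concentration for 50% inhibition of growth. TGI: total growth inhibition.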
Key:
Assay in all cases: DTP human tumour cell line panel, 48 h
TK-10 renal = test system: TK-10 renal
RXF 393 renal = test system: RXF 393 renal
DU-145 prostate = test system: DU-145 prostate
MCF7 breast = test system: MCF7 breast
HL-60(TB) leukemia = test system: HL-60(TB) leukemia
KM12 colon = test system: KM12 colon
OVCAR-3 ovarian = test system: OVCAR-3 ovarian
SR leukemia = test system: SR leukemia
UACC-257 melanoma = test system: UACC-257 melanoma
MDA-MB-435 = test system: MDA-MB-435

Row | SMILES | TGI (TK-10 renal) | TGI (RXF 393 renal) | TGI (DU-145 prostate) | TGI (MCF7 breast) | TGI (HL-60(TB) leukemia) | TGI (KM12 colon) | TGI (OVCAR-3 ovarian) | TGI (SR leukemia) | TGI (UACC-257 melanoma) | TGI (MDA-MB-435) | GI50 (TK-10 renal) | GI50 (RXF 393 renal) | GI50 (DU-145 prostate) | GI50 (MDA-MB-435) | GI50 (MCF7 breast) | GI50 (HL-60(TB) leukemia) | GI50 (KM12 colon) | GI50 (OVCAR-3 ovarian) | GI50 (UACC-257 melanoma) | GI50 (SR leukemia)
1 | Clc1ccccc1C(SCc1ccccc1)SCc1ccccc1 | > 100 µM | > 100 µM | > 100 µM | > 100 µM | > 100 µM | > 100 µM | > 100 µM | > 100 µM | > 100 µM |  |  |  |  |  |  |  |  |  |  | 
2 | Cc1cnc(NCCCN(C)C)c2c1[nH]c1ccc3cc(O)ccc3c12 | 15.8 µM | 2.16 µM | 4.03 µM | 2.15 µM | 8.37 µM | 10 µM | 1.59 µM |  | 11.5 µM | 2.3 µM |  |  |  |  |  |  |  |  |  | 
3 | O=C(CCNC12CC3CC(CC(C3)C1)C2)c1ccccc1 | 39.6 µM | 53.5 µM | > 100 µM | 34.9 µM | 28.1 µM | 91.1 µM |  | 37.1 µM | 49.4 µM | 65.9 µM |  |  |  |  |  |  |  |  |  | 
4 | Cc1nc2sccn2c1-c1csc(Nc2ccccc2Cl)n1 | 48.8 µM | 7.09 µM | 68.8 µM | 23 µM | 29.2 µM | 24.5 µM | 19.1 µM |  | 17.9 µM | 8.61 µM | 4.44 µM | 1.9 µM | 7.87 µM | 0.69 µM | 2.81 µM | 3 µM | 2.61 µM | 3.18 µM | 3.69 µM | 
5 | Cc1ccc(NC(=O)Nc2ccc(-c3cccnc3)cc2N2CCC(CO)CC2)cc1 | 5.54 µM | 4.69 µM | > 100 µM | > 100 µM | 7.38 µM | > 100 µM | 5.23 µM | > 100 µM | 9.61 µM |  | 2.04 µM | 2.18 µM | 3.78 µM |  | 1.59 µM | 2.64 µM | 1.25 µM | 1.67 µM | 2.14 µM | 2.83 µM
6 | COc1cccc(-c2cc(-c3cccc(NS(C)(=O)=O)c3)nc(N)c2C#N)c1O | > 100 µM | 1.39 µM | > 100 µM | > 100 µM | 2.77 µM | > 100 µM |  | > 100 µM | > 100 µM | 0.151 µM | 0.5 µM | 0.104 µM | 0.182 µM | 0.0275 µM | 0.279 µM | 0.0861 µM | 0.107 µM |  | 0.471 µM | 0.0562 µM
7 | CCN(CC)CCSc1c2ccccc2nc2cc(NCC(=O)Nc3ccccc3-c3ccccc3NC(=O)CNc3ccc4c(SCCN(CC)CC)c5ccccc5nc4c3)ccc12 | > 100 µM | > 100 µM |  |  | 49.3 µM | > 100 µM | > 100 µM | > 100 µM | > 100 µM |  |  |  |  |  |  |  |  |  |  | 
8 | O=C(Nc1nc2ccc([N+](=O)[O-])cc2s1)C(=O)C(C1OC(=O)c2ccccc21)[N+](=O)[O-] (stereo unspecified) | > 100 µM | > 100 µM |  |  | > 100 µM | > 100 µM | > 100 µM | > 100 µM | > 100 µM |  |  |  |  |  |  |  |  |  |  | 
9 | C1=C2/CC[C@H](Sc3ccccc3)C2C2(CCCCC/1)OCCO2 (stereo partly specified) | > 100 µM | 43.4 µM |  |  | > 100 µM | 94 µM | 72.1 µM | > 100 µM | 45.2 µM |  |  |  |  |  |  |  |  |  |  | 
10 | O=C(O)CCC(NC(=O)c1ccc(Nc2nc3ccccc3nc2-c2cccs2)cc1)C(=O)O (stereo unspecified) | > 100 µM | > 100 µM |  |  | > 100 µM | > 100 µM | > 100 µM | > 100 µM | > 100 µM |  |  |  |  |  |  |  |  |  |  | 
11 | COC(=O)/C(C#N)=C1\NC(=O)c2ccccc21 | > 100 µM | > 100 µM |  |  | > 100 µM | > 100 µM | > 100 µM | > 100 µM | > 100 µM |  |  |  |  |  |  |  |  |  |  | 
12 | COc1ccc2c(c1)sc1nc(-c3ccccc3)c(-c3cccc4ccccc34)n12 | > 100 µM | 1.29 µM | > 31.9 µM | > 33.4 µM |  | > 34.7 µM | 1.46 µM | > 100 µM | > 100 µM |  | 5.17 µM | 0.249 µM | 0.767 µM |  | 0.835 µM | 0.148 µM | 0.429 µM | 0.35 µM | 0.532 µM | 0.323 µM
13 | CC1(C(=O)O)CCC[C@@]2(C)C1CC[C@@]1(C)c3cocc3CCC21 (stereo partly specified) | > 100 µM | > 100 µM |  |  | > 100 µM | > 100 µM | > 100 µM | > 100 µM | > 100 µM |  |  |  |  |  |  |  |  |  |  | 
14 | C=CCOc1ccc2c(C)cc(=O)oc2c1C |  | 63.9 µM | > 100 µM | > 100 µM | > 100 µM | > 100 µM | > 100 µM | > 100 µM | > 100 µM | > 100 µM |  |  |  |  |  |  |  |  |  | 
15 | CC1(C)C(=O)/C=C\C(=O)C(C)(C)C2=CC=C(O2)C(C)(C)C(=O)/C=C\C(=O)C(C)(C)C2=CC=C1O2 | > 100 µM | > 100 µM |  |  | > 100 µM | > 100 µM | > 100 µM | > 100 µM | > 100 µM |  |  |  |  |  |  |  |  |  |  | 
16 | C=CCO[C@H]1CO[C@H]2[C@@H]1OC[C@@H]2Oc1ccc(Nc2ccnc(Nc3ccc(O[C@H]4CO[C@H]5[C@@H]4OC[C@@H]5OCC=C)c(Cl)c3)n2)cc1Cl | 3.63 µM | 3.1 µM | 3.13 µM | 3.38 µM | 3.78 µM | 3.08 µM | 3.25 µM |  | 3.69 µM | 3.06 µM | 1.86 µM | 1.69 µM | 1.69 µM | 1.67 µM | 1.56 µM | 1.62 µM | 1.65 µM | 1.81 µM | 1.83 µM | 
17 | COc1cc2c(c3oc4c(O)cccc4c(=O)c13)CC(C(C)(O)CO)O2 (stereo unspecified) | > 100 µM | 79.8 µM | > 100 µM | 70.8 µM | > 100 µM |  | > 100 µM | > 100 µM | > 100 µM | > 100 µM |  |  |  |  |  |  |  |  |  | 
18 | COC(CCC[N+](C)(C)C)CC[N+](C)(C)C (stereo unspecified) | > 100 µM | > 100 µM | > 100 µM | > 100 µM | > 100 µM |  | > 100 µM | > 100 µM | > 100 µM |  |  |  |  |  |  |  |  |  |  | 

Source: PubChem BioAssay (NCI)
